Consider 19 compounds from patent publication US20200131144A1, “AMINE OR (THIO)AMIDE CONTAINING LXR MODULATORS” (Phenex-FXR GmbH, priority 2017, published 2020).

For one assay, the target named is T1, LXRβ full length (FL) (Homo sapiens, UniProt P55055, INS174Q).
T1 construct: the full length (FL) proteins of LXRα (amino acids 1-447); NP005684; NP009052; expressed in transfected cells; host or cells: HEK293
T1 sequence (P55055 with tags, fused parts or gaps INS174Q): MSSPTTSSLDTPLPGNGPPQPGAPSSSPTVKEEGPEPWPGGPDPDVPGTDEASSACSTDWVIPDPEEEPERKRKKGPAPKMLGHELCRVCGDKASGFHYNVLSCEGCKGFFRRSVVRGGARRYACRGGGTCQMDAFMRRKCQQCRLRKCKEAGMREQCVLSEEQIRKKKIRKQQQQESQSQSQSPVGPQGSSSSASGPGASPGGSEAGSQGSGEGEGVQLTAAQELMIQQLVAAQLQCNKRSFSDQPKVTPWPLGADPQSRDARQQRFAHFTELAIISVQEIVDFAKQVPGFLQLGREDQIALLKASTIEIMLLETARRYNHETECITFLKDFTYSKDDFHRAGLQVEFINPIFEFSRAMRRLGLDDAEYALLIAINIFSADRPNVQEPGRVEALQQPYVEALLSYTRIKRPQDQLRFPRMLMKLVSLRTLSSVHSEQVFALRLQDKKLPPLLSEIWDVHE
The assay is described as follows: LXR Gal4 reporter transient transfection assay, mammalian two-hybrid, FL-M2H Gal4β. The assay is classed as cell-based. The note with it: HEK293 cells; inverse agonist unless *. How it is done: (§1) The tested compounds were usually dissolved, tested and stored as 20 mM stock solutions in DMSO. Since sulfonyl acetic acid derivatives tend to decarboxylate under these conditions, these stock solutions were prepared, tested and stored as 20 mM DMSO stock solutions containing 100 mM trifluoroacetic acid (5 equivalents). Sulfonyl acetic acid derivatives are shelf stable as solid at rt for long time as reported by Griesbrecht et al. (Synlett 2010:374) or Faucher et al. (J. Med. Chem. 2004; 47:18).
(§2) LXR Gal4 Reporter Transient Transfection Assays
(§3) LXRα and LXRβ activity status was determined via detection of interaction with coactivator and corepressor proteins in mammalian two-hybrid experiments (M2H). For this, via transient transfection the full length (FL) proteins of LXRα (amino acids 1-447; NP005684; SEQ ID NO:1) or LXRβ-(amino acids 1-461; NP009052; SEQ ID NO:2) or the ligand-binding domains (LBD) of LXRα (amino acids 155-447 SEQ ID NO:3) or LXR (amino acids 156-461; SEQ ID NO:4) were expressed from pCMV-AD (Stratagene) as fusions to the transcriptional activation domain of NFkB. As cofactors, domains of either the steroid receptor coactivator 1 (SRC1; amino acids 552-887; SEQ ID NO:5) or of the corepressor NCoR (amino acids 1906-2312; NP006302; SEQ ID NO:6) were expressed as fusions to the DNA binding domain of the yeast transcription factor GAL4 (from pCMV-BD; Stratagene). Interaction was monitored via activation of a coexpressed Firefly Luciferase Reporter gene under control of a promoter containing repetitive GAL4 response elements (vector pFRLuc; Stratagene). Transfection efficiency was controlled via cotransfection of constitutively active pRL-CMV Renilla reniformis luciferase reporter (Promega). HEK293 cells were grown in minimum essential medium (MEM) with 2 mM L-glutamine and Earle's balanced salt solution supplemented with 8.3% fetal bovine serum, 0.1 mM non-essential amino acids, 1 mM sodium pyruvate, at 37° C. in 5% CO2. 3.5×10^4 cells/well were plated in 96-well cell culture plates in growth medium supplemented with 8.3% fetal bovine serum for 16-20 h to—90% confluency. For transfection, medium was taken off and LXR and cofactor expressing plasmids as well as the reporter plasmids are added in 30 μL OPTIMEM/well including polyethylene-imine (PEI) as vehicle. Typical amounts of plasmids transfected/well: pCMV-AD-LXR (5 ng), pCMV-BD-cofactor (5 ng), pFR-Luc (100 ng), pRL-CMV (0.5 ng). Compound stocks were prepared in DMSO, prediluted in MEM to a total volume of 120 μL, and added 4 h after addition of the transfection mixture (final vehicle concentration not exceeding 0.2%). Cells were incubated for additional 16 h, lysed for 10 min in 1×Passive Lysis Buffer (Promega) and Firefly and Renilla luciferase activities were measured sequentially in the same cell extract using buffers containing D-luciferine and coelenterazine, respectively. Measurements of luminescence were done in a BMG-luminometer.

Assay [1] concerns the target T2, GST-LXRβ ligand-binding domain (Homo sapiens, UniProt P55055, INS174Q).
T2 construct: amino acids 156-461; NP009052; made in house; host or cells: E. coli
T2 sequence (P55055 with tags, fused parts or gaps INS174Q limits assumed): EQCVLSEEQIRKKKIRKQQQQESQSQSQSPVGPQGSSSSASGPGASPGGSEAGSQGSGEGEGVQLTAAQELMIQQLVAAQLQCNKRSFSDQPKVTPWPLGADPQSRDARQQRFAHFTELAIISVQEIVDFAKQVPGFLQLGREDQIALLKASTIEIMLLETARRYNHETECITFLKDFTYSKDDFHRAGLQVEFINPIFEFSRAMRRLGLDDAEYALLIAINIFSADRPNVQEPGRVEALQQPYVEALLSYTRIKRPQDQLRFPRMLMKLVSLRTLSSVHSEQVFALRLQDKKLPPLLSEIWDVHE
Put plainly: TR-FRETβ activity assay (NCoA3 coactivator peptide recruitment). It is filed as biochemical. Particulars: 1 μM 24(S)-25-epoxycholesterol as prestimulating agonist; inverse agonist unless *. How it is done:
The tested compounds were usually dissolved, tested and stored as 20 mM stock solutions in DMSO. […] Sulfonyl acetic acid derivatives are shelf stable as solid at rt for long time as reported by Griesbrecht et al. (Synlett 2010:374) or Faucher et al. (J. Med. Chem. 2004; 47:18). TR-FRETβ Activity Assay Recombinant GST-LXRβ ligand-binding domain (LBD; amino acids 156-461; NP009052; SEQ ID NO:4) was expressed in E. coli and purified via gluthatione-sepharose affinity chromatography. N-terminally biotinylated NCoA3 coactivator peptide (SEQ ID NO:7) was chemically synthesized (Eurogentec). […] Finally, a detection mix was added containing anti GST-Tb cryptate (CisBio; 610SAXLB) and Streptavidin-XL665 (CisBio; 610SAXLB) as fluorescent donor and acceptor, respectively, as well as the coactivator peptide and LXRβ-LBD protein (SEQ ID NO:4). The reaction was mixed thoroughly, equilibrated for 1 h at 4° C. and vicinity of LXRβ and coactivator peptide was detected by measurement of fluorescence in a VictorX4 multiplate reader (PerkinElmer Life Science) using 340 nm as excitation and 615 and 665 nm as emission wavelengths. Assays were performed in triplicates. Final Assay Concentrations of Components: 240 mM KCl, 1 μg/μL BSA, 0.002% Triton-X-100, 125 pg/μL anti GST-Tb cryptate, 2.5 ng/μL Streptavidin-XL665, coactivator peptide (400 nM), LXRP protein ([…], i.e. 76 nM).

The target of the next assay is T3, LXRα full length (FL) (Homo sapiens, UniProt Q13133).
T3 construct: the full length (FL) proteins of LXRα (amino acids 1-447); NP005684; expressed in transfected cells; host or cells: HEK293
T3 sequence (Q13133 1-447): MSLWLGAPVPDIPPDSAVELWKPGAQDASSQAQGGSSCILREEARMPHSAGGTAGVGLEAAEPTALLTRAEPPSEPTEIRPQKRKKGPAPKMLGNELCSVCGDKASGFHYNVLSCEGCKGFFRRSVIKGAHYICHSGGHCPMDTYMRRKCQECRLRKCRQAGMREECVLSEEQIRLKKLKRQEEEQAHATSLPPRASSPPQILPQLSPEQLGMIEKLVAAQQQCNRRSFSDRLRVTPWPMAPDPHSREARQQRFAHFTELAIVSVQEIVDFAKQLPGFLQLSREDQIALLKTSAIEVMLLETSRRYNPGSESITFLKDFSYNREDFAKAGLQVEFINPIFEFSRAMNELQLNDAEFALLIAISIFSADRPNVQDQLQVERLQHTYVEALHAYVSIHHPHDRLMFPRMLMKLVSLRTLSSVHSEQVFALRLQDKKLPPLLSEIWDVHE
The assay is described as follows: LXR Gal4 reporter transient transfection assay, mammalian two-hybrid, FL-M2H Gal4α. Particulars: HEK293 cells; inverse agonist unless *. It is filed as cell-based. As for the experimental part:
as §1, §2, §3

Turning to `Cc1cc(C)c(CCN(Cc2ccc(-c3cccc(S(=O)(=O)CC(=O)O)c3)cc2)Cc2ccc(C(F)(F)F)o2)c(C)c1` [7/8], the concentration for a half-maximal effect (EC50) (usually the concentration at which the effect is half-maximal) on LXRβ full length (FL) was 1000 to 10000 nM; in assay [1] it was over 10000 nM.
At LXRβ full length (FL), `O=C(O)CS(=O)(=O)c1cccc(-c2ccc(CN(Cc3ccccc3)Cc3ccc(C(F)(F)F)o3)cc2)c1` [7/11] came in with an EC50 of 1000 to 10000 nM.
On to `COc1cc(-c2cccc(S(=O)(=O)CC(=O)O)c2)ccc1CN(Cc1ccc(C(F)(F)F)o1)Cc1c(C)cc(C)cc1C` [15/2], for which the half-maximal effective concentration (EC50) (on LXRβ full length (FL); in assay [1]) was 1000 to 10000 nM in each case.
In the case of `Cc1cc(C)c(CN(Cc2ccc(C(F)(F)F)o2)Cc2sc(-c3cccc(S(=O)(=O)CC(=O)O)c3)cc2Cl)c(C)c1` [15/4], the figures for the concentration for a half-maximal effect (EC50) (on LXRβ full length (FL); in assay [1]) were 100 to 1000 nM and over 10000 nM, respectively.
As for `COc1cc(-c2cc(F)c(CO)c(S(=O)(=O)CC(=O)O)c2)cnc1CN(Cc1ccc(C(F)(F)F)o1)Cc1c(C)ccc2ccccc12` [22/3], the EC50 lay in the range of 1000 to 10000 nM at LXRα full length (FL) and 100 to 1000 nM on LXRβ full length (FL).
In the case of `Cc1nc(C)c(CN(Cc2ccc(-c3cc(F)c(CO)c(S(=O)(=O)CC(=O)O)c3)cc2)Cc2ccc(C(F)(F)F)o2)c(C)n1` [22/6], the EC50 (on LXRβ full length (FL); in assay [1]) was 1000 to 10000 nM each time.
Regarding `Cc1ccc2ccccc2c1C(=O)N(Cc1ccc(-c2cccc(C(C)(C)C(=O)O)c2)cc1)Cc1ccc(C(=O)O)o1` [27/29], the concentration giving a half-maximal response (EC50) on LXRα full length (FL) and on LXRβ full length (FL) was 1000 to 10000 nM each time.
Regarding `O=C(O)CS(=O)(=O)c1cccc(-c2ccc(CN(Cc3ccc(C(F)(F)F)o3)C3CCc4cccc5cccc3c45)cc2)c1` (centres unmarked) [27/40], the figures for the EC50 (at LXRβ full length (FL); in assay [1]) were 1000 to 10000 nM and over 10000 nM, respectively.
Regarding `Cc1cc(C)c(CN(Cc2ccc(-c3cccc(S(=O)(=O)CC(=O)O)c3)cc2)C(=O)c2ccc(C(F)(F)F)o2)c(C)c1` [27/57], the concentration giving a half-maximal response (EC50) in assay [1] is over 10000 nM.
Compound `Cc1ccc2ccccc2c1C(=O)N(Cc1ccc(C(F)(F)F)o1)Cc1ccc(-c2cncc(C(C)(C)C(=O)O)c2)cc1C(F)F` [27/63] showed an EC50 in assay [1] of 100 to 1000 nM.
For the compound `CC1CCc2ccccc2N1C(=O)N(Cc1ccc(-c2cccc(C(C)(C)C(=O)O)c2)cc1)Cc1ccc(C(F)(F)F)o1` (centres unmarked) [27/96], the concentration for a half-maximal effect (EC50) at LXRα full length (FL) and at LXRβ full length (FL) was under 100 nM in each case.
Regarding `COc1ccc2nc(C)c(C)c(C(=O)N(Cc3ccc(-c4cccc(C(C)(C)C(=O)O)c4)cc3)Cc3ccc(C(F)(F)F)o3)c2n1` [27/134], the EC50 on LXRα full length (FL) and at LXRβ full length (FL) was under 100 nM throughout.
In turn, `Cc1cc(C)c(CN(Cc2ccc(-c3cccc(S(=O)(=O)CC(=O)NS(=O)(=O)N(C)C)c3)cc2)Cc2ccc(C(F)(F)F)o2)c(C)c1` [Example 2/1] showed an EC50 in assay [1] of over 10000 nM.
On to `Cc1cc(C)c(CC(=O)N(Cc2ccc(-c3cccc(S(=O)(=O)CC(=O)O)c3)cc2)Cc2ccc(C(F)(F)F)o2)c(C)c1` [Example 9/1], for which, at LXRβ full length (FL), the concentration for a half-maximal effect (EC50) fell in the range of 1000 to 10000 nM.
The compound `Cc1cc(C)c(CN(Cc2ccc(-c3ccc(CO)c(S(=O)(=O)CC(=O)O)c3)cc2)Cc2ccc(C(F)(F)F)o2)c(C)c1` [Example 12, 2-((4-(Hydroxvmethyl)-4′-((((5-(trifluoromethyl)furan-2-yl)methyl)(2,4,6-trimethyl-benzyl)amino)methyl)-[1,1′-biphenyl]-3-yl)sulfonyl)acetic acid] came in with a 50% effective concentration (EC50) in assay [1] of 1000 to 10000 nM.
Turning to `Cc1ccc2ccccc2c1C(=O)N(Cc1ccc(-c2cccc(S(=O)(=O)CC(=O)O)c2)cc1)Cc1ccc(C(N)=O)o1` [Example 16, 2-((4′-((N-((5-Carbamoylfuran-2-yl)methyl)-2-methyl-1-naphthamido)methyl)-[1,1′-biphenyl]-3-yl)sulfonyl)acetic acid], the half-maximal effective concentration (EC50) on LXRβ full length (FL) fell in the range of 1000 to 10000 nM.
`CC(C)(C(=O)O)c1cccc(-c2ccc(CN(Cc3ccc(C(F)(F)F)o3)C(CF)c3cccc4ccccc34)cc2)c1` (centres unmarked) [Example 18, 2-(4′-(((2-Fluoro-1-(naphthalen-1-yl)ethyl)((5-(trifluoromethyl)furan-2-yl)methyl)amino)methyl)-[1,1′-biphenyl]-3-yl)-2-methylpropanoic acid] came in with a concentration giving a half-maximal response (EC50) at LXRβ full length (FL) of 100 to 1000 nM.
On to `Cc1cc(C)c(CN(Cc2ccc(-c3cc(F)c(CF)c(S(=O)(=O)CC(=O)O)c3)cc2)Cc2ccc(C(F)(F)F)o2)c(C)c1` [Example 20, 2-((5-Fluoro-4-(fluoromethyl)-4′-((((5-(trifluoromethyl)furan-2-yl)methyl)(2,4,6-trimethyl-benzyl)amino)methyl)-[1,1′-biphenyl]-3-yl)sulfonyl)acetic acid], for which the figures for the EC50 (at LXRβ full length (FL); in assay [1]) were 100 to 1000 nM and 1000 to 10000 nM, respectively.
Consider `Cc1ccc2ccccc2c1CN(Cc1ccc(C(F)(F)F)o1)Cc1ccc(-c2cccc(S(=O)(=O)CC(=O)O)c2)c2nccn12` [Example 27, 2-((3-(5-((((2-Methylnaphthalen-1-yl)methyl)((5-(trifluoromethyl)furan-2-yl)methyl)amino)methyl)imidazo[1,2-a]pyridin-8-yl)phenyl)sulfonyl)acetic acid], for which the EC50 in assay [1] is over 10000 nM.
